Measured values as given in the supplement of paper PMC10307832.

What was measured:
Test in all cases: relative viability (nuclei count vs DMSO), 5 days (fraction); higher = more cells survive
Masitinib + Tozasertib = compound: Cc1ccc(NC(=O)c2ccc(CN3CCN(C)CC3)cc2)cc1Nc1nc(-c2cccnc2)cs1 [Masitinib] + Cc1cc(Nc2cc(N3CCN(C)CC3)nc(Sc3ccc(NC(=O)C4CC4)cc3)n2)n[nH]1 [Tozasertib] (partner 0.1 µM)
Summary of the method: (§1)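 Lung cancer cell lines were pin-tool dosed in 1536-well plates on the day after seeding, with either a lone drug or a fixed anchor-drug dose plus five library-drug doses (not always all listed) in √10 steps. Nuclei were counted on 4× images after 5 days. Relative viability is the ratio of treated-well to vehicle-well nuclei counts, with each value a median of duplicate plates.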

[1] = compound: CC1=CC(=CC=C1)NC2=NC(=CS2)C3=CC=NC=C3 + Nc1ncn([C@H]2C[C@H](O)[C@@H](CO)O2)c(=O)n1 [Decitabine] (partner 2 µM)
Summary of the method: as §1

Masitinib + Vorinostat = compound: Cc1ccc(NC(=O)c2ccc(CN3CCN(C)CC3)cc2)cc1Nc1nc(-c2cccnc2)cs1 [Masitinib] + O=C(CCCCCCC(=O)Nc1ccccc1)NO [Vorinostat] (partner 1 µM)
Summary of the method: as §1

[2] = compound: CC1=CC(=CC=C1)NC2=NC(=CS2)C3=CC=NC=C3 + C[C@@H](Oc1cc(-c2cnn(C3CCNCC3)c2)cnc1N)c1c(Cl)ccc(F)c1Cl [Crizotinib] (partner 1 µM)
Summary of the method: as §1

Row | Cell Line | relative viability (Masitinib + Tozasertib; first compound 0.01 µM) | relative viability (Masitinib + Tozasertib; first compound 0.03162 µM) | relative viability (Masitinib + Tozasertib; first compound 0.1 µM) | relative viability (Masitinib + Tozasertib; first compound 0.3162 µM) | relative viability (Masitinib + Tozasertib; first compound 1 µM) | relative viability ([1]; first compound 0.08 µM) | relative viability ([1]; first compound 0.253 µM) | relative viability ([1]; first compound 0.8 µM) | relative viability ([1]; first compound 2.53 µM) | relative viability ([1]; first compound 8 µM) | relative viability (Masitinib + Vorinostat; first compound 0.01 µM) | relative viability (Masitinib + Vorinostat; first compound 0.03162 µM) | relative viability (Masitinib + Vorinostat; first compound 0.1 µM) | relative viability (Masitinib + Vorinostat; first compound 0.3162 µM) | relative viability (Masitinib + Vorinostat; first compound 1 µM) | relative viability ([2]; first compound 0.08 µM) | relative viability ([2]; first compound 0.253 µM) | relative viability ([2]; first compound 0.8 µM) | relative viability ([2]; first compound 2.53 µM) | relative viability ([2]; first compound 8 µM)
1 | H3255 | 0.437 | 0.712 | 0.502 | 0.687 | 0.608 | 0.576 | 0.506 | 0.581 | 0.601 | 0.553 | 0.9 | 0.9 | 0.544 | 0.584 | 0.761 | 0.721 | 0.926 | 0.821 | 0.795 | 0.853
2 | 201T | 0.711 | 1.01 | 0.85 | 0.789 | 0.926 | 0.898 | 0.904 | 0.909 | 0.937 | 0.827 | 0.74 | 1.05 | 0.774 | 0.78 | 0.914 | 1.01 | 0.993 | 0.955 | 1.06 | 0.869
3 | HOP-62 | 0.366 | 0.349 | 0.408 | 0.414 | 0.395 | 0.219 | 0.218 | 0.261 | 0.244 | 0.247 | 0.588 | 0.573 | 0.681 | 0.746 | 0.687 | 0.935 | 0.788 | 0.944 | 0.503 | 0.93
4 | NCI-H596 | 0.972 | 0.73 | 1.07 | 1.08 | 0.716 | 0.923 | 1.02 | 0.836 | 0.899 | 0.91 | 0.702 | 0.546 | 0.545 | 0.533 | 0.588 | 0.875 | 0.929 | 0.814 | 0.943 | 0.971
5 | NCI-H2085 | 0.691 | 0.779 | 0.865 | 0.479 | 0.663 | 0.479 | 0.532 | 0.504 | 0.452 | 0.457 | 0.7 | 0.829 | 0.67 | 0.701 | 0.822 | 0.64 | 0.891 | 0.918 | 0.877 | 0.627
6 | NCI-H2023 | 0.327 | 0.356 | 0.279 | 0.184 | 0.189 | 0.239 | 0.223 | 0.245 | 0.203 | 0.216 | 0.493 | 0.583 | 0.66 | 0.611 | 0.721 | 0.603 | 0.525 | 0.507 | 0.758 | 0.37
